# Tests used:
# [1] = UV-absorption titration determination of pKa; format: physicochemical; settings: absorption
# Description: General information. ^1H, ^13C and ^19F NMR were collected on a Varian Gemini 300 MHz NMR spectrometer and a Bruker 300 MHz NMR spectrometer. Mass spectrometry data was collected on a Jeol JMS-600H. UV spectra were recorded on a Shimadzu UV-2100. Fluorescence spectra were obtained with SPEX FluoMax spectrofluorimeter using right-angle geometry. pH was adjusted with AB 15 plus pH meter (Accument) after standardization at 25° C. All buffers were prepared and pH-adjusted at room temperature (25° C.). Plasmid DNA Photocleavage. pBR322 plasmid DNA (4,361 b/p; from BioLabs Inc., 1 μg/μL solution in 10 mM Tris-HCl (pH 8.0), and 1 mM EDTA buffer) was diluted to a concentration of 0.01 μg/μL. The solution containing cleavage agent, DNA (30 μM/bp) in 20 mM sodium phosphate buffer was incubated for 1 hour at 30° C. Samples were placed on ice at a distance of 20 cm from 200 W Hg—Xe lamp (Spectra-Physics, Laser & Photonics Oriel Instruments with long pass filter with 324 nm cut-off wavelength). Electrophoretic Analysis. The gel electrophoresis was carried out in 1×TBE buffer at 80 V using Miligel FisherBiotech Horizontal Electrophoresis System. All gels were run on 1% agarose slab gels. Before loading, the DNA samples were mixed with 0.33 volume of tracking dye containing bromophenol blue (0.25%) and glycerol (30%) in water. After staining in ethidium bromide solution (2 μg/ml) for 1 hour, the gel was washed with water and pictures were taken with Polaroid 3000ISO type 667 film. The relative quantities of the supercoiled, nicked, and linear DNA were calculated by integrating the “area” of each spot by the image analyzer software Total/Lab (Nonlinear Dynamics Ltd., UK). The amount of supercoiled DNA was multiplied by factor of 1.4 to account for reduced ethidium bromide intercalation into supercoiled DNA. pH titration by ^1H-NMR. pH* of compound 8 (3 mM) solution in D2O containing 0.05 wt % 3-(trimethylsilyl)propionic-2,2,3,3-d4 acid, sodium salt (TSP-d4) was adjusted with 10 wt % DCI and NaOD in D2O at 25° C. under argon purged condition. Spectrometric determinations of pKa. pH of 10 μM of compound solution in H2O was adjusted with 10, 100 mM HCl (aq) and NaOH (aq) solution under argon purged condition. Excitation wavelength was 330 nm and polymethacrylate fluorimeter cuvettes were used. Absorbance and fluorescence titration with DNA. The concentrations of calf thymus DNA stock solution was determined spectophotometrically using the following molar absorptovity values: 1.32×10^4 M^−1 cm^−1 (per base pair) at 260 nm. All experiments were done in 20 mM sodium phosphate buffer at 25° C. and polymethacrylate fluorimeter cuvettes were used. The same amount of DNA was added to both sample and reference cuvettes during UV/Vis titration. Determination of excited state lifetimes. The concentration of compound solution was 10 μM in 20 mM sodium phosphate buffer. The photoluminescence lifetime measurements were conducted by exciting the samples with the output of a Nd:VO—4 (Spectra-Physics Vanguard, 2 W, 532 nm, 76 MHz, 10 ps) pumped R6G dye laser (Coherent 702-1). The output of the dye laser (600 nm, Rhodamine 6G) was cavity dumped at 1.9 MHz and frequency doubled using a BBO crystal to excite the fluorophore (the excitation wavelength used was 290 nm). Samples were excited with <1 mW power and the emission was collected at right angles onto a Chromex S3 500 is 0.5 m imaging monochromator with a 50 g/mm grating and 0.5 nm resolution. […]
# [2] = tested on: calf thymus (CT) DNA; assay: UV-Vis absorbance titration with DNA; format: binding; settings: 20 mM phosphate buffer
# Description: General information. ^1H, ^13C and ^19F NMR were collected on a Varian Gemini 300 MHz NMR spectrometer and a Bruker 300 MHz NMR spectrometer. Mass spectrometry data was collected on a Jeol JMS-600H. UV spectra were recorded on a Shimadzu UV-2100. Fluorescence spectra were obtained with SPEX FluoMax spectrofluorimeter using right-angle geometry. pH was adjusted with AB 15 plus pH meter (Accument) after standardization at 25° C. All buffers were prepared and pH-adjusted at room temperature (25° C.). Plasmid DNA Photocleavage. pBR322 plasmid DNA (4,361 b/p; from BioLabs Inc., 1 μg/μL solution in 10 mM Tris-HCl (pH 8.0), and 1 mM EDTA buffer) was diluted to a concentration of 0.01 μg/μL. The solution containing cleavage agent, DNA (30 μM/bp) in 20 mM sodium phosphate buffer was incubated for 1 hour at 30° C. Samples were placed on ice at a distance of 20 cm from 200 W Hg—Xe lamp (Spectra-Physics, Laser & Photonics Oriel Instruments with long pass filter with 324 nm cut-off wavelength). Electrophoretic Analysis. The gel electrophoresis was carried out in 1×TBE buffer at 80 V using Miligel FisherBiotech Horizontal Electrophoresis System. All gels were run on 1% agarose slab gels. Before loading, the DNA samples were mixed with 0.33 volume of tracking dye containing bromophenol blue (0.25%) and glycerol (30%) in water. After staining in ethidium bromide solution (2 μg/ml) for 1 hour, the gel was washed with water and pictures were taken with Polaroid 3000ISO type 667 film. The relative quantities of the supercoiled, nicked, and linear DNA were calculated by integrating the “area” of each spot by the image analyzer software Total/Lab (Nonlinear Dynamics Ltd., UK). […] Absorbance and fluorescence titration with DNA. The concentrations of calf thymus DNA stock solution was determined spectophotometrically using the following molar absorptovity values: 1.32×10^4 M^−1 cm^−1 (per base pair) at 260 nm. […]
# [3] = tested on: calf thymus (CT) DNA; assay: Fluorescence (emission) titration with DNA; format: binding; settings: 10 μM, 20 mM phosphate buffer
# Description: (§1) General information. ^1H, ^13C and ^19F NMR were collected on a Varian Gemini 300 MHz NMR spectrometer and a Bruker 300 MHz NMR spectrometer. Mass spectrometry data was collected on a Jeol JMS-600H. UV spectra were recorded on a Shimadzu UV-2100. Fluorescence spectra were obtained with SPEX FluoMax spectrofluorimeter using right-angle geometry. pH was adjusted with AB 15 plus pH meter (Accument) after standardization at 25° C. All buffers were prepared and pH-adjusted at room temperature (25° C.). Plasmid DNA Photocleavage. pBR322 plasmid DNA (4,361 b/p; from BioLabs Inc., 1 μg/μL solution in 10 mM Tris-HCl (pH 8.0), and 1 mM EDTA buffer) was diluted to a concentration of 0.01 μg/μL. The solution containing cleavage agent, DNA (30 μM/bp) in 20 mM sodium phosphate buffer was incubated for 1 hour at 30° C. […] The relative quantities of the supercoiled, nicked, and linear DNA were calculated by integrating the “area” of each spot by the image analyzer software Total/Lab (Nonlinear Dynamics Ltd., UK). […] Absorbance and fluorescence titration with DNA. The concentrations of calf thymus DNA stock solution was determined spectophotometrically using the following molar absorptovity values: 1.32×10^4 M^−1 cm^−1 (per base pair) at 260 nm. […]
# [4] = tested on: CT DNA; assay: Ethidium bromide displacement assay; format: binding, calf; settings: 10 μM ethidium bromide, 10 μM CT DNA
# Description: as §1
# [5] = tested on: UMRC3 cells; assay: RCC cell proliferation assay, UMRC3; format: cell-based; settings: Homo sapiens, UMRC3, UV 350 nm 10 minutes, 72 hours
# Description: (§2) FIG. 23 provides the results of cell proliferation assays using three different RCC cell lines: (a) UMRC3, (b) UMRC6 and (c) 786-O, and compounds I-5; RCC cells were resuspended in media and treated with UV radiation (350 nm) for 10 minutes with and without indicated compounds; control cells were exposed to the indicated compound 1-5 at final concentration of 10 μM; cell numbers determined after 72 hours as described in the SI Section;
# (§3) The ability of compounds 1-5 to inhibit cell proliferation in three human clear cell renal cell carcinoma (RCC) cell lines was tested in the dark and under photoactivation (FIG. 23). No difference was detected in the control experiments between cells not exposed to UV versus those that were exposed to UV at 350 nm for 10 minutes in any of the three RCC cell lines tested (FIG. 23 A, B & C; first two columns).
# [6] = tested on: UMRC6 cells; assay: RCC cell proliferation assay, UMRC6; format: cell-based; settings: Homo sapiens, UMRC6, UV 350 nm 10 minutes, 72 hours
# Description: as §2, §3
# [7] = tested on: three human clear cell renal cell carcinoma (RCC) cell lines (UMRC3, UMRC6, 786-O); assay: RCC cell proliferation assay, three cell lines together; format: cell-based; settings: 10 μM
# Description: as §2, §3
# [8] = tested on: LNCap human prostate adenocarcinoma cells; assay: LNCap cell proliferation assay; format: cell-based
# [9] = Solubility / aggregation in water; format: physicochemical; settings: higher pH values (~8)
# Text: The decrease in solubility leads to the apparent aggregation and distortion of potentiometric curves at the higher pH. This distortion prevents accurate curve fitting (see FIG. 25). Thus, we had to resort to alternative spectral methods. Fortunately, there is a selection of convenient procedures which provide complementary information which can be used for cross-checking the accuracy of the alternative approaches.
smiles,measurement,setting,value
"Cl.Cl.NCCCC[C@H](N)C(=O)Nc1ccc(C#Cc2c(F)c(F)nc(F)c2F)cc1 [Compound 4, (S)-2,6-Diamino-hexanoic acid [4-(2,3,5,6-tetrafluoro-pyridin-4-ylethynyl)-phenyl]-amide dihydrochloride]",pKa1,"[1]; α-amino group (4, 6), ε-amino group (7)",6.9
same,pKa2,[1]; ε-amino group,-/9.5
same,hypochromicity on titration with DNA,"[2]; pH 5.5, 10 μM",20%
same,hypochromicity on titration with DNA,"[2]; pH 7, 10 μM",14%
same,hypochromicity on titration with DNA,"[2]; pH 8, 10 μM",12%
same,change in fluorescence upon DNA titration,[3],increase in fluorescence
same,displacement of intercalated ethidium bromide from its complex with DNA,[4],does not lead to the displacement
same,mortality at 10 µM,[5],94%
same,mortality at 10 µM,[6],90%
same,cytotoxicity in the dark,[7],considerably less cytotoxic in the dark
same,LNCap cells destroyed,"[8]; 10 nM, UV 10 minutes, counted after 48 h",more than 90%
same,toxicity without light,[8]; no UV,almost no toxicity
same,aggregation and precipitation,[9],does not aggregate and precipitate

# From patent US8334403B1, “C-lysine conjugates as pH-controlled, light-activated reagents for double stranded DNA cleavage and associated methods” (Florida State University Research Foundation, Inc., priority 2005, dated 2012)
